What was measured:
Format in all cases: cell-based, human
USP7 foci in U2OS cells = assay: QIBC of endogenous USP7 foci; conditions: MMC 150 ng/ml, 24 h
Protocol: Automated multichannel wide-field microscopy for QIBC was performed using the Olympus ScanR System as described previously. Images of cell populations were acquired under non-saturating conditions with Olympus ScanR Image Acquisition software 3.2 and 3.3.0, typically 16 (4×4) images per coverslip, and identical settings were applied to all samples of the same experiment. Images were analysed with the inbuilt Olympus ScanR Image Analysis Software Version 3.2 and 3.3.0, a dynamic background correction was applied, and nuclei segmentation was performed using an integrated intensity-based object detection module based on the DAPI signal. All downstream analyses were focused on properly detected nuclei containing a 2C-4C DNA content as measured by total and mean DAPI intensities. Fluorescence intensities were quantified and are depicted as arbitrary units. Color-coded scatterplots of asynchronous cell populations were generated with Spotfire data visualization software (TIBCO Spotfire 10.10.1.7). Within one experiment, similar cell numbers were compared for the different conditions. For visualizing discrete data in scatterplots, mild jittering (random displacement of data points along discrete data axes) was applied to demerge overlapping data points. Representative scatterplots and quantifications of independent experiments, typically containing several thousand cells each, are shown. […]

HeLa FAN1 KO cells = assay: clonogenic survival assay, HeLa FAN1 KO; conditions: MMC 10, 20, and 40 ng/ml, 24 h, n=3
Protocol: HeLa and RPE-1 p53 KO cells were transfected with the indicated siRNA. The next day, the cells were seeded in six-well plates. The next day, the cells were treated with MMC for 24 h. Plates were then washed twice with 2 ml of PBS before adding fresh growth medium to the cells, that were then cultured for 13 days at 37 °C before fixation with crystal violet solution [0.5% crystal violet and 20% ethanol (w/v)]. For analysis, plates were scanned and analysed with the ImageJ Plugin ColonyArea using the parameter “intensity percent”. […]
the mean (dashed lines) are indicated. Representative images are shown (bottom). Scale bar: 10 μm. […]
Western blot analysis of HeLa cells depleted of the indicated factors. (E) Clonogenic survival assay of the HeLa cells depleted of the indicated factors (Ctrl: black circle; FANCD2: red square; USP7#1: inverted blue triangle; USP7#2: cyan triangle; RAD18: brown diamond) and exposed to increasing doses of MMC for 24 h. Viability of untreated cells was defined as 100%. Data are presented as the means ± SD of four biological replicates (n=4). Representative images are shown (left). (F) Western blot analysis of HeLa and HeLa FAN1 KO cells depleted of the indicated factors. […]

FAN1-USP7 = assay: in situ proximity ligation assay (PLA), FAN1-USP7 association; conditions: HeLa cells, MMC 150 ng/ml, 24 h
Protocol: HeLa parental and FAN1 KO cells were grown in the absence or presence of MMC (150 ng/ml) for 24 hours. Cells were pre-extracted with CSK buffer containing 0.5% of Triton™ X-100 (Sigma–Aldrich) for 5 min on ice and fixed in 4% formaldehyde in PBS (w/v) for 20 min at room temperature (RT). Coverslips were then washed with PBS and stored overnight at 4 °C. In situ PLA was performed using Duolink PLA technology (Sigma-Aldrich) according to the manufacturer’s instructions. In brief, coverslips were blocked for 30 min at 37 °C with blocking solution and then incubated with the respective primary antibodies for 2 h at 37 °C. Coverslips were washed three times for 5 min in Wash Buffer A (0.01 M Tris, 0.15 M NaCl, and 0.05% Tween 20). Then, Duolink anti-Mouse PLUS and anti-Rabbit MINUS PLA probes were coupled to the primary antibodies for 1 h at 37 °C. After three wash steps in Wash buffer A for 5 min, the PLA probes were ligated for 30 min at 37 °C. Coverslips were then washed three times for 5 min in Wash buffer A. Amplification using the “Duolink In Situ Detection Reagents FarRed” (Sigma-Aldrich) was performed at 37 °C for 100 min. […] Lastly, the coverslips were mounted using Vectashield Mounting Media (Vector Laboratories) containing DAPI, sealed and imaged on a Leica DMI 6000 fluorescence microscope at x63 magnification. […]

CO[C@@]12[C@H](COC(N)=O)C3=C(C(=O)C(C)=C(N)C3=O)N1C[C@@H]1N[C@@H]12 [MMC, Mitomycin C]
USP7 nuclear foci (USP7 foci in U2OS cells): increased modestly in numbers | MMC sensitivity, RAD18 or FANCD2 depletion (HeLa FAN1 KO cells): additive increase in sensitivity | MMC sensitivity, USP7 depletion (HeLa FAN1 KO cells): did not exacerbate MMC hypersensitivity | PLA signals, FAN1-USP7 association (FAN1-USP7): significantly increased in numbers
